Measurements from patent US10544156B2, “Hemi-synthetic trilobine analogs for use as a drug” (PIERRE FABRE MEDICAMENT, priority 2015, dated 2020).
Where two headings read alike, the source gives them in different places.

How the values were obtained:
[1] = system: luciferase reporter gene under control of methylated CMV promoter in KG-1 cells; experiment: CMV-luc reexpression in KG-1 cells; type: cell-based, human; details: for Induction Fold (IF) of luciferase gene reporter in KG-1 CMV-Luc: 24 h, vs DMSO; for IF-24 h, KG1 CMV-Luc model: at 5 μM, 24 h (Table 5)
Description: KG-1 cells were stably transfected with the firefly luciferase reporter gene (luc+ from pGL3; Promega) under the control of the cytomegalovirus (CMV) promoter (from pEGFP-N1; Clontech Laboratories Inc.) partially methylated (50%). 20,000 cells per well were seeded in a 96-well plate. After 24 h incubation in the presence of the test compound or solvant (DMSO), the induction of the promoter was measured by quantification of the luciferase signal with the Brite-lite assay system (PerkinElmer) according to the manufacturer's protocol. The luminescence was measured on an EnVision multilabel plate reader (PerkinElmer), and the data are expressed as the fold induction as compared with the DMSO control. The mean of three experiments and the standard error is reported.

[2] = biological target: T1, His-DNMT1 (182 kDa, human) (Homo sapiens, UniProt P26358); experiment: hDNMT1 assay ([methyl-3H] SAM Flashplate); type: biochemical; details: for inhibition at 10 µM: read-out: hDNMT 1 inhibition, Inhibition (%) 10 μM; for inhibition at 32 µM: read-out: hDNMT 1 inhibition, Inhibition (%) 32 μM
T1 construct: His; made in house
T1 sequence (P26358 whole entry): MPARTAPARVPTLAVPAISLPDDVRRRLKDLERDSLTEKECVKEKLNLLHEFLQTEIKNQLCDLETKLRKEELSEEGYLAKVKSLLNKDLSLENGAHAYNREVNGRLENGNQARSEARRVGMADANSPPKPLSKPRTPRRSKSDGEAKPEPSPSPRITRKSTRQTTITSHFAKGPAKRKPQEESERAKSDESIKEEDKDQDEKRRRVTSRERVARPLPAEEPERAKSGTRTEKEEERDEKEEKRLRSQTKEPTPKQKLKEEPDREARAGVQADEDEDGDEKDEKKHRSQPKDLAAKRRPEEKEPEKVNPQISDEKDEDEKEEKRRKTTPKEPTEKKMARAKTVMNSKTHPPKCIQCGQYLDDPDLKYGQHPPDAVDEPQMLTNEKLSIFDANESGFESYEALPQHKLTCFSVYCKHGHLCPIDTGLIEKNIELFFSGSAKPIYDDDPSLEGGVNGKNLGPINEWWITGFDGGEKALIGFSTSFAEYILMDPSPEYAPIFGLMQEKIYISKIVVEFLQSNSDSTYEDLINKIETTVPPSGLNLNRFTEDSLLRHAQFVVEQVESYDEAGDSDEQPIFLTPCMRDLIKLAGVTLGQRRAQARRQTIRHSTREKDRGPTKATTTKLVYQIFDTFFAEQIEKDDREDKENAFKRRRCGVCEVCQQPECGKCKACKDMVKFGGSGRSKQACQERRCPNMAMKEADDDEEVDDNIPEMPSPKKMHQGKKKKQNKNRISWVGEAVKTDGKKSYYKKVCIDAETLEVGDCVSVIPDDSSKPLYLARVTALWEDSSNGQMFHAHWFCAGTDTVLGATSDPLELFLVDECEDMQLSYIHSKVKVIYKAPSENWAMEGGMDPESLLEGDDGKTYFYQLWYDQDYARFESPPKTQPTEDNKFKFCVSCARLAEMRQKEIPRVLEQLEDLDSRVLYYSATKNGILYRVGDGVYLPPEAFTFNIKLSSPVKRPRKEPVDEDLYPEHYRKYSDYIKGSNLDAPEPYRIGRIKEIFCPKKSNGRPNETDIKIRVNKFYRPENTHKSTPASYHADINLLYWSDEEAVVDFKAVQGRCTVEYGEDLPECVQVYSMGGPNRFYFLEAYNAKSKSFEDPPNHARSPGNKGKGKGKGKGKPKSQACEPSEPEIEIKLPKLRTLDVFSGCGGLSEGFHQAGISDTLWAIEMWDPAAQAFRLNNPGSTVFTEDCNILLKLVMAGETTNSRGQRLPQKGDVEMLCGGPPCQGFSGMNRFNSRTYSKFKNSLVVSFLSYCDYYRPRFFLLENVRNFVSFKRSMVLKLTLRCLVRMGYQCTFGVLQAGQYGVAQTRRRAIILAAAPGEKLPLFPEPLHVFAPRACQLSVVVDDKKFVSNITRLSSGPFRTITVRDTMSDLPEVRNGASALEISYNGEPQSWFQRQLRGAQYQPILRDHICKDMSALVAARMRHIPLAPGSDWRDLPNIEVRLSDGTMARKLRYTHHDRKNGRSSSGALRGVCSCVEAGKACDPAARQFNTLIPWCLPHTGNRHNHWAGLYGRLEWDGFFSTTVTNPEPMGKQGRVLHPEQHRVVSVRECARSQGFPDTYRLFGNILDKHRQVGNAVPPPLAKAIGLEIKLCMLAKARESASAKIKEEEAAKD
Description: His-DNMT1 (182 kDa, human) was cloned, expressed and purified as described (Halby et al. Chem Bio Chem 2012, 13, 157-165). The reaction was performed in a 10 μL total reaction volume in low volume NBS™ 384-well microplates (Corning), containing the tested compound (up to 1% DMSO), 1 μM of a SAM/[methyl-^3H] SAM (3TBq/mmol, PerkinElmer) mix in a ratio of 3-to-1 (isotopic dilution 1*:3), 0.3 μM of biotinylated hemimethylated DNA duplex (5′-GATmCGCmCGATGmCGmCGAATmCGmCGATmCGATGmCGAT-3′ and BIOT-5′-[…]-3′), and 90 nM of DNMT1 in methylation buffer (20 mM HEPES pH 7.2, 1 mM EDTA, 50 mM KCl, 25 μg/mL BSA). The reaction was incubated at 37° C. for 2 hours. 8 μL are then transferred into a streptavidin 96-well scintillant coated Flashplate™ (PerkinElmer) containing 190 μL of 20 μM SAH in 50 mM Tris-HCl pH 7.4. The Flashplate™ was agitated at room temperature for 1 hour and read in 200 μL of 50 mM Tris-HCl pH 7.4 on TopCount NXT (PerkinElmer). The percentage of inhibition is reported. The formula used to calculate the percentage of inhibition is [(X−Y)/X]×100, where X is the signal determined in the absence of the inhibitor and Y is the signal obtained in the presence of the inhibitor.

[3] = biological target: T2, human C-terminal DNMT3A (623-908a.a.) (Homo sapiens, UniProt Q9Y6K1); experiment: hDNMT3A assay (restriction-based fluorescence assay); type: biochemical; details: for inhibition at 10 µM: read-out: hDNMT 3A inhibition, Inhibition (%) 10 μM; for inhibition at 32 µM: read-out: hDNMT 3A inhibition, Inhibition (%) 32 μM
T2 construct: The human C-terminal DNMT3A (623-908a.a.); made in house
T2 sequence (Q9Y6K1 627-912 limits assumed): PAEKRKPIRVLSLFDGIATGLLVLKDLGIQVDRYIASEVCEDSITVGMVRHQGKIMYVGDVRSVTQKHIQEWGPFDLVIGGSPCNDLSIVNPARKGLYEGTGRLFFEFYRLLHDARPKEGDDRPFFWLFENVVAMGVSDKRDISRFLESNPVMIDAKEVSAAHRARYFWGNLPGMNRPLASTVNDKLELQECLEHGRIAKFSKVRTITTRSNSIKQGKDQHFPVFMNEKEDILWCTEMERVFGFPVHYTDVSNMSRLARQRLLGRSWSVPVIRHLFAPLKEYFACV
Description: hDNMT3A enzyme inhibition was adapted from the restriction-based fluorescence assay protocol as described in the literature (Ceccaldi et al. Chem Bio Chem 2011, 12, 1337-1345). Briefly, a 5′-labelled biotin oligonucleotide is hybridized to its complementary strand labelled with 6-carboxyfluorescein at the 3′-end into a 384 well microplate (black Optiplates; Perkin Elmer) pre-coated with avidin. The duplex contains a unique CpG site overlapping with a restriction site of a methylation sensitive restriction enzyme. The human C-terminal DNMT3A (623-908a.a.), produced as described in (Gros et al. Nucl. Acids Res. 2013, 41(19):e185), was added in each well (200 ng/well) and mixed with the chemical compounds at desired concentrations and freshly prepared SAM (20 μM final concentration) to start the reaction in a total volume of 50 μL. After 1 hour incubation at 37° C. each well were washed three times with PBS, Tween-20 0.05%, NaCl (500 mM) and three more times with PBST. Specific fluorescent signals were detected with the methylation-sensitive restriction enzyme HpyCH4IV (NEB) as described and measured on a Perkin Elmer Envision detector. The percentage of inhibition is reported. The formula used to calculate the percentage of inhibition is [(X−Y)/X]×100, where X is the signal determined in the absence of the inhibitor and Y is the signal obtained in the presence of the inhibitor. The concentration at which 50% of efficacy of inhibition is observed (EC50) was determined by analysis of a concentration range of the tested compound in triplicates. The non-linear regression fittings with sigmoidal dose-response (variable slope) were performed with GraphPad Prism 4.03 (GraphPad Software).

[4] = concentration at which 50% of efficacy of inhibition is observed, read-out: EC50 (μM), hDNMT 3A inhibition
[5] = interval line below the EC50 of the same compound, read-out: EC50 (μM), range given

| SMILES | Induction Fold (IF) of luciferase gene reporter in KG-1 CMV-Luc ([1]; 0.1 μM) | Induction Fold (IF) of luciferase gene reporter in KG-1 CMV-Luc ([1]; 0.32 μM) | Induction Fold (IF) of luciferase gene reporter in KG-1 CMV-Luc ([1]; 1 μM) | Induction Fold (IF) of luciferase gene reporter in KG-1 CMV-Luc ([1]; 3.2 μM) | Induction Fold (IF) of luciferase gene reporter in KG-1 CMV-Luc ([1]; 5 μM) | Induction Fold (IF) of luciferase gene reporter in KG-1 CMV-Luc ([1]; 10 μM) | IF-24 h, KG1 CMV-Luc model [1] | inhibition at 10 µM [2] [%] | inhibition at 32 µM [2] [%] | EC50 [3, 4] [µM] | EC50 [3, 5] [µM] | inhibition at 10 µM [3] [%] | inhibition at 32 µM [3] [%] | EC50 ([2]; read-out: EC50 (μM), hDNMT 1 inhibition) [µM] |
| --- | --- | --- | --- | --- | --- | --- | --- | --- | --- | --- | --- | --- | --- | --- |
| CNC(=O)N1CCc2cc(OC)c3c4c2[C@@H]1Cc1ccc(cc1)Oc1cc(ccc1OC)C[C@H]1c2cc(c(cc2CCN1C)O3)O4 [Product 44] | 1.1 ± 0.1 | 1.1 ± 0.1 | 1.3 ± 0.1 | 2.0 ± 0.1 | 2.5 ± 0.9 | 9.0 ± 1.3 | 5.9 ± 0.2 | 0 | 15 | 3.96 | 3.04 to 5.17 | 82 | 96 | – |
| CCN(CC)CCCNC(=S)N1CCc2cc3c4cc2[C@@H]1Cc1ccc(OC)c(c1)Oc1ccc(cc1)C[C@H]1c2c(cc(OC)c(c2O4)O3)CCN1C(=S)NCCCN(CC)CC [Product 41] | 1.1 ± 0.1 | 1.1 ± 0.1 | 1.3 ± 0.1 | 2.0 ± 0.3 | 2.8 ± 0.2 | 3.1 ± 0.4 | 3.3 ± 0.1 | 60 | 99 | 0.557 to 0.91 | – | 94 | 95 | 11 ± 0.7 |
| COc1ccc2cc1Oc1ccc(cc1)C[C@@H]1NCCc3cc(OC)c4c(c31)Oc1cc3c(cc1O4)CCN(C)[C@H]3C2 [Trilobine (1), trilobine] | 1.1 ± 0.1 | 1.9 ± 1.2 | 2.6 ± 1.4 | 3.5 ± 1.1 | 6.4 ± 0.1 | – | 5.8 ± 0.6 | 4 | – | 3.8 | 3.21 to 4.49 | 88 | 96 | – |
